The NIST ThermoML archive (doi:10.1021/acs.jced.8b00157)
Where “and” joins values, the source holds several entries; their conditions need not be identical. Identical values can stand only once. Numbers after ± are expanded uncertainties.

Experiment: an = ratio of the nth substance listed
Conditions: 100 kPa, Liquid, Buoyancy - hydrostatic balance, a2 = 1.3

[F][Al]([F])[F] [aluminum fluoride] + [F-].[K+]
Conditions	mass density
1013.8 K	1821 ± 10 kg/m3
1014 K	1822 ± 10 kg/m3
1014.2 K	1821 ± 11 kg/m3
1014.4 K	1822 ± 11 kg/m3
1014.5 K	1822 ± 11 kg/m3
1014.9 K	1821 ± 11 kg/m3
1015.1 K	1821 ± 11 kg/m3
1015.2 K	1820 ± 11 kg/m3 and 1821 ± 11 kg/m3
1015.3 K	1822 ± 11 kg/m3
1015.5 K	1821 ± 11 kg/m3
1015.7 K	1820 ± 11 kg/m3
1016.1 K	1819 ± 10 kg/m3
1016.3 K	1820 ± 10 kg/m3
1016.5 K	1819 ± 10 kg/m3
1016.7 K	1819 ± 11 kg/m3
1016.8 K	1819 ± 11 kg/m3
1017 K	1818 ± 11 kg/m3
1017.4 K	1818 ± 11 kg/m3
1017.8 K	1819 ± 11 kg/m3
1018 K	1818 ± 11 kg/m3
1018.1 K	1818 ± 11 kg/m3
1018.2 K	1819 ± 11 kg/m3
1018.4 K	1819 ± 11 kg/m3 and 1816 ± 11 kg/m3
1018.5 K	1818 ± 11 kg/m3
1018.6 K	1817 ± 11 kg/m3
1018.9 K	1816 ± 11 kg/m3
1019.5 K	1818 ± 11 kg/m3
1019.7 K	1816 ± 11 kg/m3
1019.8 K	1817 ± 10 kg/m3
1019.9 K	1817 ± 10 kg/m3 and 1815 ± 10 kg/m3 and 1816 ± 10 kg/m3
1020.3 K	1816 ± 11 kg/m3
1020.5 K	1815 ± 11 kg/m3
1020.8 K	1815 ± 11 kg/m3
1021 K	1816 ± 11 kg/m3
1021.1 K	1816 ± 11 kg/m3
1021.2 K	1814 ± 10 kg/m3
1021.4 K	1815 ± 11 kg/m3
1021.7 K	1816 ± 11 kg/m3 and 1815 ± 11 kg/m3
1022 K	1813 ± 11 kg/m3
1022.1 K	1815 ± 10 kg/m3
1022.6 K	1815 ± 11 kg/m3
1022.8 K	1813 ± 11 kg/m3
1022.9 K	1812 ± 11 kg/m3
1023 K	1814 ± 11 kg/m3
1023.1 K	1814 ± 10 kg/m3
1023.2 K	1814 ± 10 kg/m3
1023.4 K	1813 ± 11 kg/m3
1023.7 K	1812 ± 11 kg/m3
1024 K	1813 ± 11 kg/m3
1024.1 K	1812 ± 11 kg/m3
1024.4 K	1812 ± 11 kg/m3
1024.9 K	1813 ± 10 kg/m3 and 1811 ± 11 kg/m3
1025 K	1811 ± 10 kg/m3
1025.2 K	1813 ± 11 kg/m3
1025.6 K	1810 ± 11 kg/m3
1025.7 K	1810 ± 11 kg/m3
1025.8 K	1812 ± 11 kg/m3
1026 K	1812 ± 11 kg/m3
1026.2 K	1812 ± 11 kg/m3
1026.4 K	1810 ± 11 kg/m3
1026.5 K	1809 ± 11 kg/m3
1026.6 K	1810 ± 11 kg/m3
1026.7 K	1811 ± 11 kg/m3
1026.9 K	1809 ± 11 kg/m3
1027.1 K	1810 ± 11 kg/m3
1027.2 K	1808 ± 11 kg/m3
1027.3 K	1811 ± 11 kg/m3
1027.4 K	1808 ± 11 kg/m3
1027.5 K	1809 ± 11 kg/m3
1027.9 K	1809 ± 11 kg/m3
1028 K	1809 ± 11 kg/m3
1028.1 K	1809 ± 11 kg/m3
1028.3 K	1807 ± 11 kg/m3
1028.6 K	1807 ± 11 kg/m3
1028.7 K	1807 ± 11 kg/m3
1028.9 K	1808 ± 11 kg/m3
1029.1 K	1806 ± 11 kg/m3
1029.3 K	1807 ± 11 kg/m3 and 1808 ± 11 kg/m3
1029.4 K	1807 ± 11 kg/m3
1029.8 K	1806 ± 11 kg/m3
1030.3 K	1806 ± 11 kg/m3
1030.6 K	1807 ± 11 kg/m3 and 1806 ± 11 kg/m3
1030.9 K	1805 ± 11 kg/m3
1031.1 K	1806 ± 11 kg/m3 and 1804 ± 11 kg/m3
1031.5 K	1804 ± 12 kg/m3
1031.7 K	1805 ± 11 kg/m3 and 1806 ± 11 kg/m3
1031.8 K	1805 ± 11 kg/m3
1032.3 K	1803 ± 12 kg/m3
1032.5 K	1805 ± 11 kg/m3
1032.6 K	1803 ± 10 kg/m3
1032.7 K	1804 ± 11 kg/m3
1032.9 K	1804 ± 12 kg/m3
1033.1 K	1803 ± 10 kg/m3
1033.3 K	1803 ± 11 kg/m3 and 1804 ± 11 kg/m3
1033.5 K	1803 ± 11 kg/m3
1033.7 K	1801 ± 11 kg/m3 and 1802 ± 11 kg/m3
1033.8 K	1803 ± 10 kg/m3
1033.9 K	1804 ± 11 kg/m3
1034.1 K	1802 ± 11 kg/m3
1034.5 K	1801 ± 11 kg/m3
1034.8 K	1802 ± 10 kg/m3 and 1801 ± 10 kg/m3
1034.9 K	1802 ± 11 kg/m3
1035.3 K	1801 ± 10 kg/m3 and 1800 ± 10 kg/m3
1035.6 K	1800 ± 10 kg/m3
1035.7 K	1799 ± 10 kg/m3
1036.4 K	1799 ± 10 kg/m3
1036.6 K	1801 ± 11 kg/m3 and 1798 ± 11 kg/m3
1037 K	1799 ± 10 kg/m3
1037.1 K	1801 ± 10 kg/m3
1037.5 K	1797 ± 10 kg/m3
1037.7 K	1798 ± 10 kg/m3
1038.1 K	1800 ± 11 kg/m3 and 1797 ± 11 kg/m3
1038.2 K	1799 ± 11 kg/m3
1038.4 K	1796 ± 11 kg/m3
1038.5 K	1799 ± 11 kg/m3
1038.6 K	1799 ± 10 kg/m3
1038.9 K	1799 ± 11 kg/m3
1039 K	1796 ± 11 kg/m3
